Measured values from patent US20180043017A1, “PHARMACEUTICAL COMPOSITIONS COMPRISING 0.5 MG DOSE OF SYNTHETIC HUMAN PEPTIDES FOR TREATING SYSTEMIC LUPUS ERYTHEMATOSUS” (XTL Biopharmaceuticals Ltd., priority 2016, published 2018).
Like-named read-outs stand apart in the source and are kept apart here.

What was measured:
SLE patients [1] = details: cited from earlier work
[2] = tested on: mice afflicted with spontaneous or experimental SLE; details: mouse, in vivo; cited from earlier work
SLE patients [3] = details: cited from earlier work; for incidence of adverse events (AEs): placebo 75%
SLE patients [4] = experiment: PRELUDE phase 2 study, three doses of subcutaneously injected Edratide, 26 weeks; details: for AE incidence: placebo 79.3%; for early withdrawal due to AE: placebo 2.3%
Method: (§1) The PRELUDE Study was a phase 2, multinational, multicenter, randomized, double-blind, placebo-controlled, multiple-dose, parallel group study to assess the efficacy, tolerability and safety of three doses of subcutaneously injected Edratide in SLE patients.
(§2) The total study treatment duration was 26 weeks. Scheduled visits were performed at screening, baseline and at weeks 4, 8, 12, 16, 20, 24, and 26 (termination). […] Non-compliance with the tapering down scheme was not regarded as a protocol violation. During the entire course of the study it was allowed to increase the steroid prednisolone dose to up to 60 mg. Use of intravascular/intramuscular steroid was considered a protocol violation. […] Edratide and CAPTISOL® pharmacokinetic (PK) profiles were characterized in a small group of patients. PK assessment of CAPTISOL® for all four treatment groups was conducted following the first dose and Weeks 12 and 26 doses. Disease and drug related immunology parameters were tested at baseline and at several time points thereafter.
(§3) The co-primary end-points presented in their hierarchical order below were: • Change from baseline to last observed value (LOV) in SLEDAI 2K score (Landmark Analysis.) • Adjusted Mean SLEDAI 2K (AMS). AMS represents the time weighted average of disease activity as measured by SLEDAI 2K score [area under the curve (AUC) of SLEDAI 2K].
(§4) Secondary End-Points: • BILAG proportion of responders. BILAG responders were defined as: • a. Non Responder (NR)—same BILAG score in Last Observed Value (LOV) as in baseline in all systems or new A or B in at least one system compared to baseline (other systems may improve or deteriorate). • b. […] Change from baseline to LOV • SF-36 (QoL) Physical component Score—Change from Baseline to LOV • Time Weighted Average (TWA) on cumulative steroids dose with p.o. administration.
(§5) Exploratory End-Points: • Primary end-point sensitivity analysis to steroid increase (excluding the observations following steroid increase) • Proportions of Zero SLEDAI Score at LOV • Time to Zero SLEDAI Score • BILAG Total Score—Change from Baseline to LOV
(§6) Flares Analysis: • Time to medicinal flare • Time to new BILAG A or at least two new B's • Time to new BILAG A or at least two new B's (excluding persistent activity) • Steroid dose (PO)—Change from baseline to LOV • PGA—Physician's Global Assessment

SLE patients [5] = details: in vivo
Method: as §1, §2, §3, §4, §5, §6

[6] = tested on: peripheral blood lymphocytes (PBL) of SLE patients; details: cited from earlier work

For `CC[C@H](C)[C@H](NC(=O)[C@H](Cc1c[nH]c2ccccc12)NC(=O)[C@H](CO)NC(=O)[C@H](Cc1c[nH]c2ccccc12)NC(=O)[C@H](Cc1ccc(O)cc1)NC(=O)[C@H](Cc1ccc(O)cc1)NC(=O)CN)C(=O)C[C@@H](CCCNC(=N)N)C(=O)N[C@@H](CCC(N)=O)C(=O)N1CCC[C@H]1C(=O)N1CCC[C@H]1C(=O)NCC(=O)N[C@@H](CCCCN)C(=O)NCC(=O)N[C@@H](CCC(=O)O)C(=O)N[C@@H](CCC(=O)O)C(=O)N[C@@H](Cc1c[nH]c2ccccc12)C(=O)N[C@H](C(=O)NCC(=O)O)[C@@H](C)CC` (stereo in doubt) [Edratide, H-Gly-Tyr-Tyr-Trp-Ser-Trp-Ile-Arg-Gln-Pro-Pro-Gly-Lys-Gly-Glu-Glu-Trp-Ile-Gly-OH], the “subjects with increase in total SLEDAI-2K score of 0-3 points” value (SLE patients [1]; 0.5 mg group) is given as “Two”, the “subjects with increase in total SLEDAI-2K score of 0-3 points” value (SLE patients [1]; 2.5 mg group) is given as 2 subjects and the “overall incidence of AEs between all treatment groups” value (SLE patients [1]; 0.5, 1 or 2.5 mg sc twice weekly for 4 weeks vs placebo) is given as “no prominent difference”. The “severity of injection site reactions” value (SLE patients [1]; all injection site reactions, majority resolved on day of injection) was “mild”, the “subjects reporting AEs during 8-week follow-up period (off-drug)” value (SLE patients [1]; all treatment groups) was “Approximately 50%” and the “adjusted mean SLEDAI (AMS) score change, baseline to termination visit” value (SLE patients [1]; all treatment groups, decreased (improved)) was −0.1 to −1.5 points. The “trend in mean group total BILAG score” value (SLE patients [1]; any treatment group) was “No trend”, the “SAE throughout the study” value (SLE patients [1]; in vivo) was “No SAE was reported” and the “incidence of AEs during 8-week follow-up period (off-drug), active groups vs placebo” value (SLE patients [1]; in vivo) was “no prominent difference”. The “disease manifestations of mice afflicted with spontaneous or experimental SLE” value [2] was “ameliorate disease manifestations”, the “increase of total SLEDAI-2K score in one subject” value (SLE patients [3]; 0.5 mg group, Week 4 after dosing, not confirmed as lupus flare) was 2 to 10 points and the “change of total SLEDAI-2K score” value (SLE patients [3]; any subject during the study, except one subject in the 0.5 mg group) was “No noteworthy change”. The “incidence of adverse events (AEs)” value (SLE patients [3]; single sc injection 0.5 mg, % of the subjects) was 33%, the “incidence of adverse events (AEs)” value (SLE patients [3]; single sc injection 1 mg) was 67% and the “incidence of adverse events (AEs)” value (SLE patients [3]; single sc injection 2.5 mg) was 80%. The “Serious Adverse Events (SAEs), number of subjects” value (SLE patients [4]; 0.5 mg) was 6 subjects, the “change in SF-36 mental score compared to placebo” value (SLE patients [4]; 0.5 mg) was “slightly better” and the “change in SF-36 physical score compared to placebo” value (SLE patients [4]; 0.5 mg) was “opposite trend”. For the same compound, the “early withdrawal due to AE, number of subjects” value (SLE patients [4]; 0.5 mg) was 5 subjects, the “post hoc analysis on BILAG responders, system improved” value (SLE patients [4]; 0.5 mg) was “improvement mainly in the cutaneous system” and the “subjects who prematurely terminated the study” value (SLE patients [4]; 0.5 mg (84 randomized)) was “Thirteen”. For the same compound, the “deaths during the study” value (SLE patients [4]; 0.5 mg group) was “One”, the “relation of death to study drug as classified by investigators” value (SLE patients [4]; 0.5 mg group, most probably septic shock) was “not related to the study drug” and the AE incidence (SLE patients [4]; 0.5 mg weekly) was 82.1%. For the same compound, the BILAG substantial responders (SLE patients [4]; 0.5 mg, ITT, LOV vs baseline, placebo 22%, p=0.03) was 36%, the “subjects with medicinal flare” value (SLE patients [4]; 0.5 mg, ITT, post hoc, placebo 29%, p=0.039) was 17% and the “BILAG substantial response odds ratio (OR) vs placebo” value (SLE patients [4]; 0.5 mg, ITT, p=0.03) was 2.09. The “medicinal flare OR vs placebo” value (SLE patients [4]; 0.5 mg, ITT, p=0.039) was 0.43, the BILAG substantial responders (SLE patients [4]; 0.5 mg, no steroids at baseline, placebo 13%, p=0.05) was 54% and the “early withdrawal due to AE” value (SLE patients [4]; 0.5 mg) was 6.0%. For the same compound, the “Serious Adverse Events (SAEs) incidence” value (SLE patients [4]; 0.5 mg, placebo 10.3%) was 7.1%, the “Serious Adverse Events (SAEs), number of subjects” value (SLE patients [4]; 1.0 mg) was 10 subjects and the “early withdrawal due to AE, number of subjects” value (SLE patients [4]; 1.0 mg) was 3 subjects. The “subjects who prematurely terminated the study” value (SLE patients [4]; 1.0 mg (87 randomized)) was 13 subjects, the subjects with zoster (SLE patients [4]; 1 mg group) was 2 subjects and the AE incidence (SLE patients [4]; 1 mg weekly) was 77%. The “proportion of BILAG substantial responders compared to placebo” value (SLE patients [4]; 1 mg, lesser extent than 0.5 mg) was “trend toward increasing the proportion of substantial responders”, the “BILAG substantial response OR vs placebo” value (SLE patients [4]; 1 mg, p=0.07 without correction for multiple comparison) was 1.85 and the “early withdrawal due to AE” value (SLE patients [4]; 1.0 mg) was 3.4%. The “Serious Adverse Events (SAEs) incidence” value (SLE patients [4]; 1.0 mg, placebo 10.3%) was 11.5%, the “Serious Adverse Events (SAEs), number of subjects” value (SLE patients [4]; 2.5 mg) was 8 subjects and the “early withdrawal due to AE, number of subjects” value (SLE patients [4]; 2.5 mg) was 3 subjects. The “subjects who prematurely terminated the study” value (SLE patients [4]; 2.5 mg (82 randomized)) was 11 subjects, the AE incidence (SLE patients [4]; 2.5 mg weekly) was 75.6% and the “early withdrawal due to AE” value (SLE patients [4]; 2.5 mg) was 3.7%. For the same compound, the “Serious Adverse Events (SAEs) incidence” value (SLE patients [4]; 2.5 mg, placebo 10.3%) was 9.8%, the cSRI positive responders (SLE patients [4]; ITT (FIG. 4), placebo 20%, p=0.058) was 34% and the “safety signal from AEs analysis and additional safety data” value (SLE patients [4]; all Edratide doses, no clear dose response) was “no significant safety signal”. The “co-primary endpoints (change in SLEDAI 2K score baseline to LOV; AMS), active groups vs placebo” value (SLE patients [4]; any of the active treatment groups) was “no differences”, the “SF-36 mental or physical scores, differences between treatment groups” value (SLE patients [4]; in vivo) was “No clinically or statistically significant differences” and the “cumulative change in steroid dose throughout the study, differences between treatment groups” value (SLE patients [4]; in vivo) was “No clinically or statistically significant differences”. The “early terminations due to AEs, Edratide vs placebo” value (SLE patients [4]; in vivo) was “more often”, the SAE incidence (SLE patients [4]; pooled Edratide group, placebo 10.3%) was 9.5% and the “BILAG substantial response OR vs placebo” value (SLE patients [4]; prednisolone dose <20 mg at baseline, p=0.007) was 2.75. For the same compound, the BILAG substantial responders (SLE patients [4]; prednisolone dose <20 mg at baseline, placebo 19%, p=0.007 (FIG. 2B)) was 40%, the “mean reduction from baseline SLEDAI-2K score” value (SLE patients [4]; regardless of treatment) was “about 35%” and the BILAG substantial responders (SLE patients [4]; seropositive patients (anti-DNA>30 IU), placebo 26% (FIG. 2C)) was 46%. The BILAG non-responders (SLE patients [4]; seropositive patients (anti-DNA>30 IU), placebo 68%, p=0.05) was 42%, the “subjects with herpes simplex” value (SLE patients [5]) was 8 subjects and the “subjects with herpes viral infections” value (SLE patients [5]) was 11 subjects. The “subjects with herpes zoster” value (SLE patients [5]) was 3 subjects and the “proliferative response of PBL of SLE patients to the human anti-DNA 16/6Id mAB” value [6] was “inhibit the proliferative response”.
